The source of these data is article PMC7274485, “A symbiotic bacterium of shipworms produces a compound with broad spectrum anti-apicomplexan activity” (PLoS Pathogens, 2020).

Read-outs that look alike come from different tables or passages of the source.

As usually defined, the EC50 is the midpoint of the concentration-response curve.

In one series the test system is Sarcocystis neurona. As to the kind of experiment: Sarcocystis neurona GFP/Luc merozoite growth in bovine turbinate cells, luciferase expression. It counts as cell-based. The note with it: 24 hours treatment, read-out: EC50 against S. neurona. As to the method:
Culture of Sarcocystis neurona GFP/Luc merozoites in bovine turbinate cells and in vitro drug response assays were conducted as previously described.
A. Bovine turbinate cells infected with luciferase expressing Sarcocystis neurona merozoites were treated with trtE for 24 hours and parasite growth evaluated by luciferase expression. […] B. Theileria equi-infected erythrocytes were incubated with trtE or DMSO vehicle control and proliferation was measured after 72 hours by SYBR green incorporation. Percent proliferation was calculated relative to DMSO treated controls. […] (DOCX) Click here for additional data file.

Another series deals with B. bigemina. As to the kind of experiment: B. bigemina-infected erythrocyte proliferation, SYBR green incorporation. It counts as cell-based. The note with it: Babesia bigemina, infected erythrocytes, 72 hours, read-out: EC50 against B. bigemina. How it is done:
B. bovis and B. bigemina inhibitor response assays were adapted from components of [79–81]. B. bovis and B. bigemina parasites were maintained in bovine erythrocytes under microaerophilic stationary phase conditions in vitro as described elsewhere. Prior to use in growth studies parasites were grown in erythrocytes from which leukocytes were depleted. Cultures were set up at 0.20% parasitized erythrocytes, in quadruplicate, in complete medium supplemented with trtE. Final concentration of DMSO in all cultures was 1%, and was consistent throughout. Following 72h growth under 90% nitrogen, 5% oxygen, 5% carbon dioxide cells were harvested by thorough resuspension, and transferred to a black, opaque 96-well plate. Cells were freeze-thawed at -80°C overnight, then mixed with an equal volume of SYBR Green lysis buffer. Lysis buffer was composed of 20 mM Tris, pH 7.5, 5 mM EDTA, 0.008% (w/v) saponin, 0.08% (v/v) NP40, and contained 0.2 μl 10,000x SYBR Green I dye ml^-1 (S7563; Invitrogen; Carlsbad, CA). Plates were incubated for one hour at room temperature in the dark prior to reading in a microplate reader, at 485 nm excitation and 528 nm emission wavelengths.

In series [1] the test system is Toxoplasma gondii bradyzoites. Description: Very preliminary study against T. gondii bradyzoites. In kind it is cell-based. The note with it: close to the level of toxicity for the host cells.
The next series concerns Bovine turbinate cells. Description: Cytotoxicity for host cells, cellular ATP (CellTiter-Glo): BT cells.
The test system of a further series is T. gondii ME49. As to the kind of experiment: Length of treatment needed to kill intracellular T. gondii (compound wash-off, luciferase 72 hours later). It counts as cell-based, Toxoplasma gondii. The note with it: 30 nM trtE, ME49 in HFF, treated 0.5 to 4 hours, washed off, growth 72 hours after treatment. As to the method: To test this hypothesis, we infected HFF cells with luciferase-expressing T. gondii ME49 for 24 hours, then treated infected cells with trtE for 30 minutes to 4 hours. The compound was then washed off the infected cells, and parasite growth was quantified 3 days after the removal of the compound. Parasites treated for at least 2 hours were killed by trtE (Fig 2E).
T. gondii parasite lines were maintained by passage in HFFs as previously described. To determine the effect of trtE on intracellular parasites, 96 well plates containing confluent HFFs were infected with T. gondii strain ME49 modified to express green fluorescent protein (GFP) and luciferase (Luc), generated as described or T. gondii RH strain GFP/Luc (a kind gift from Dr. Jeroen Saeij, UC Davis). […] Growth was monitored by luciferase expression using Bright-glo Luciferase assay system (Promega Corp., Madison, WI). To determine the length of treatment needed to kill intracellular parasites, trtE was added to infected cells and then the compound removed 0.5, 1, 2 and 4 hours later by washing the monolayer three times with complete media. Infected cells were then incubated for 72 hours before growth was quantified by luciferase expression. For time-lapse images, HFFs were seeded into 35 mm glass bottom microwell dishes (MatTek Corporation, Ashland, MA). […]

Another series has as its system Plasmodium falciparum. As to the kind of experiment: P. falciparum-infected erythrocyte proliferation, SYBR green incorporation. In kind it is cell-based. The note with it: Plasmodium falciparum, Erythrocyte. The text has this: The maintenance of Plasmodium falciparum cultures and conducting of in vitro inhibitor response assays have been previously described.

In the case of `CC1CCC=CC=CCCC(O)CC(=O)CC2CCC(C)C3(O2)O[B-]24OC(C(=O)O1)C1(OC(CCC1C)CC(=O)CC(O)CCC=CC=CCCC(C)OC(=O)C3O2)O4` (centres unmarked) [trtE, tartrolon E], the EC50 in the series with Sarcocystis neurona was determined as 12.9 nM; with B. bigemina, 9.3 nM; in the series on Plasmodium falciparum (Table 1, rounded, read-out: EC50 against P. falciparum (Table 1)) it was 0.1 nM; in the series with Plasmodium falciparum (infected erythrocytes, 72 hours, read-out: EC50 against P. falciparum), 0.105 nM. In series [1], the “Concentration at which trtE was effective against bradyzoites” value is on record as ~ 1 µM. For the same compound, the “TC50 (median toxic concentration) for BT cells” value in the series with Bovine turbinate cells (20–30% confluency, 24 hours, cellular ATP) worked out at 16800 nM. In addition, the “Selectivity Index, S. neurona vs Bovine turbinate cells” value in the series on Bovine turbinate cells (TC50/EC50) was determined as 1302. In addition, the “Length of trtE treatment after which parasites were killed” value with T. gondii ME49 was “kills the parasites after two hours of treatment”.
